{"source": "paper PMC11237073", "about": "“Bisphenol S causes excessive estrogen synthesis by activating FSHR and the downstream cAMP/PKA signaling pathway” (Communications Biology, 2024)", "target": "T1, follicle stimulating hormone receptor (FSHR) (Homo sapiens, UniProt P23945)", "T1 sequence (P23945 18-695)": "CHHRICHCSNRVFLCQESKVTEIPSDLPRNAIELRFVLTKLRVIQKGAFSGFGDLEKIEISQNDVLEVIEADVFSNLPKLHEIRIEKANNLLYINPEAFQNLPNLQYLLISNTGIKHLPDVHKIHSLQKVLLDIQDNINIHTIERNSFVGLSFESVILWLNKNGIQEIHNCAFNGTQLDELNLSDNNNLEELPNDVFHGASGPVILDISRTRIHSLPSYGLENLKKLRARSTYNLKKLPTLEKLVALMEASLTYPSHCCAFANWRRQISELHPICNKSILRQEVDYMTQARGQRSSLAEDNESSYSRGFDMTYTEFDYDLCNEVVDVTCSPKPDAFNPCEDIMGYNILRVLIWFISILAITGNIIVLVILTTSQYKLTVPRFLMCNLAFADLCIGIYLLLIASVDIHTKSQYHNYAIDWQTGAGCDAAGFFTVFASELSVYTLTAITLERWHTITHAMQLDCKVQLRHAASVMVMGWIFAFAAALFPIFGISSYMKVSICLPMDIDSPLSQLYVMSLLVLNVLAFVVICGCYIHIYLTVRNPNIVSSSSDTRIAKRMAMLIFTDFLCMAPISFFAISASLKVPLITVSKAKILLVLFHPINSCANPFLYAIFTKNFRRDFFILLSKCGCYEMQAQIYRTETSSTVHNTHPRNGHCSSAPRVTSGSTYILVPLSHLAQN", "assay": "isothermal titration calorimetry (Nano ITC, […] BPS into […] FSHR, sequential two-site model)", "conditions": "read-out: Value for specific binding site", "data": [{"smiles": "O=S(=O)(c1ccc(O)cc1)c1ccc(O)cc1", "note": "[BPS, bisphenol S]", "values": [{"measurement": "Kd", "result": 183, "unit": "µM"}]}]}
